Measured values taken from publication PMC10892451, “Evaluation of the Antibacterial Activity of New Dermaseptin Derivatives against Acinetobacter baumannii” (Pharmaceuticals, 2024).
In brackets after ≈: the same amount, converted by molar mass. Ends that are not written are not given here.

How the values were obtained:
[1] = tested on: A. baumannii clinical specimen MDR; assay: microbe, parasite or virus in culture; conditions: for A. baumannii MIC: broth microdilution, Mueller-Hinton broth, 5 × 10^5 CFU/mL, 24 h at 37 °C, clinical MDR isolate, triplicate
Method: (§1) The bacterial strain used in the present study came from the stock culture of the microbiology laboratory of the Federal University of the Delta of Parnaíba—UFDPar, Parnaíba—PI, Brazil. The strain used in the tests was A. baumannii clinical specimen MDR (multidrug resistant), which developed resistance to major antibiotic classes and carbapenem-resistant isolates. Before performing all experiments, the selected strains were cultured in Petri dishes containing Mueller-Hinton agar (Difco™, Piaui, Brazil). Then, under aerobic conditions, they were incubated in a bacteriological oven for 24 h at 35 ± 2 °C. After incubation, the colonies that grew alone were collected with a disposable bacteriological loop and suspended in a sterile saline solution (0.85% NaCl (w/v), Parnaíba—UFDPar, Piaui, Brazil) in order to reach an absorbance pattern between 0.08 and 0.13 at 625 nm, as tested with a UV-vis spectrophotometer (Shimadzu, Japan), thus corresponding to 0.5 McFarland scale (1–2 × 10^8 CFU/mL), as recommended by the Clinical Laboratory Standards Institute CLSI [75]. Once standardized, the obtained bacterial suspension was used to prepare the bacterial inoculum used in the execution of MIC determination protocols.
(§2) In accordance with the standards recommended by CLSI [75], the antibacterial potential of the peptides was evaluated with the method of determining the MIC, i.e., the broth microdilution method. Using a 96-well microdilution plate (KASVI, Parnaíba, Brazil), the antibacterial effect was analyzed against the bacterial strains. Therefore, 5 μL of each peptide was added to the first line of the microtiter wells containing 195 μL Mueller-Hinton (M-H) broth (Life Technologies, New York, NY, USA), followed by two-fold serial dilutions with final concentrations ranging from 25 µg/mL to 0.19 µg/mL for all peptides. The volume of the bacterial inoculum was equal to 50 µL, which was added to the test wells with the M-H broth at the beginning of the experiment to give a final concentration of 5 × 10^5 CFU/mL and to reach a final volume of 100 μL in each well after discarding the last additional volume of 100 μL following the serial dilution. MIC was defined as the lowest concentration of an antibacterial agent expressed in μg/mL, which, under strictly controlled in vitro conditions, completely prevents visible bacterial growth after incubation for 24 h at 37 °C in aerobic conditions. […] All tests were performed in triplicate. In order to guarantee the quality and safety of the protocols of this study, the manipulation of bacterial strains was performed under aseptic conditions.

[2] = tested on: A. baumannii clinical specimen MDR; assay: microbe, parasite or virus in culture; conditions: for A. baumannii MBC: 10 μL of wells at or above MIC seeded onto Mueller-Hinton agar, clinical MDR isolate, triplicate
Method: After determining the MIC, the MBC was assessed against A. baumannii MDR. Meropenem was used as an antibacterial control drug. The loaded solvent saline served as a negative control. […] Meropenem targets Gram-positive and Gram-negative bacteria, as well as anaerobic bacteria. Similar to other carbapenems, meropenem disrupts the synthesis of bacterial cell walls, inhibiting growth and leading to cell death.
as §1, §2

HEp-2 cells [3] = assay: MTT cytotoxicity assay on HEp-2 cells; type: cell-based, human; conditions: peptide concentration causing 50% cytotoxicity, 72 h treatment, 1.5-100 μg/mL, triplicate at three different times
Method: It was obtained from the American Type Culture Collection (ATCC, Manassas, VA, USA). Cells were routinely maintained in a humidified atmosphere of 5% CO2 at 37 °C. The Culture Medium Dulbecco’s Modified Eagle Medium (DMEM) (Biofaster, Tunis, Tunisia) was supplemented with 1% L-glutamine, 1% penicillin/streptomycin and 10% (v/v) heat inactivated fetal bovine serum (FBS)(Biofaster, Tunis, Tunisia).
The cytotoxicity test consisted of measuring the viability of cells in culture when they came into contact with the peptides being tested. Cytotoxicity was determined using the 3-(4,5-dimethylthiazol-2-yl)-2,5-diphenyl tetrazolium bromide (MTT) colorimetric assay on cultured cells (HEp-2 lines). […] After 72 h of incubation, the supernatant was collected and the viability of the cells treated with the peptides was determined by the MTT method. […] After 4 h of incubation at 37 °C, the optical density (OD) was measured at 570 nm using an ELISA reader (Multiskan EX, Labsystems, Paris, France), after adding 100 μL of DMSO to dissolve the crystals of formazan. The results were expressed as a percentage of viability relative to the negative control without a peptide, according to the formula: (Viability percentage = (DO544 nm peptide/DO544 nm control) × 100). […]

A. baumannii MDR = assay: AFM average surface roughness of treated bacteria; type: cell-based, Acinetobacter baumannii; conditions: AFM tapping mode, bacteria from MIC assay wells after 24 h, n = 10 areas of 0.3 × 0.3 µm; non-treated bacteria 25.77 nm
Source text: In order to understand how our cationic peptide eliminates bacteria, we must consider its effect on the outer membrane found in Gram-negative bacteria. Here, we use atomic force microscopy (AFM) to directly investigate K4S4(1-16) interactions with the outer membrane of A. baumannii and characterize the biophysical consequences of K4S4(1-16) treatment. However, Gram-negative bacteria are complex organisms, with two membranes and molecular machinery dedicated to maintaining membrane stability. The images show the morphology of a clinical strain of A. baumannii before and after treatment with the derivative. […] The cell differed considerably from the cocci-bacilli-shaped cell observed without peptide treatment. Therefore, this cationic peptide appears to have a highly disruptive effect. […]
With the objective of observing possible morphological alterations caused by the action of an active peptide from the DRS families, bacterial growth control and bacteria treated with K4S4 (1-16) were evaluated using Atomic Force Microscopy (AFM). […]
Statistical analyses were performed with the GraphPad Prism 9.0 software (GraphPad Software Inc.) for cell viability assays. The difference between the average roughness (Ra) was statistically analyzed using t Test in the GraphPad Prism 8.0 software. […]

HEp-2 cells [4] = conditions: cited from earlier work
Method: (§3) Cells were exposed to increasing concentrations of peptides, ranging from 1.5 to 100 μg/mL. The cytotoxicity of DRSs was concentration dependent, and peptide 50% cytotoxic concentration (CC50) values were determined (Table 2).

[5] = cited from earlier work
[6] = cited from earlier work; remark: listed apart in the source
Method: as §3

[7] = tested on: multi-drug resistant Salmonella Enteritidis; conditions: cited from earlier work

Compound | A. baumannii MIC [1] | A. baumannii MBC [2] | also measured
C[C@@H](O)[C@H]1C(=O)N2C(C(=O)O)=C(S[C@@H]3CN[C@H](C(=O)N(C)C)C3)[C@H](C)[C@H]12 [meropenem] | – | – | MIC ([1]; Acinetobacter baumannii, 24 h, read-out: A. baumannii MIC): 32 µg/mL (≈ 83.4 µM); MBC ([2]; Acinetobacter baumannii, read-out: A. baumannii MBC): 64 µg/mL (≈ 167 µM)
ALWKTLLKKVLKAAAK [K4S4(1-16)] | 6.25 µg/mL | 12.5 µg/mL | CC50 Hep-2 Cells (HEp-2 cells [3]): 68.9 µg/mL; roughness on the cell surface after treatment (A. baumannii MDR): 43.41 nm
ALWKTLLKKVLKAAAKAALKAVLVGANA [K4K20S4] | 3.125 µg/mL | 6.25 µg/mL | –
ALWMTLLKKVLKAAAKAALNAVLVGANA-OH [S4] | 12.5 µg/mL | 25 µg/mL | maximal non-cytotoxic concentration (HEp-2 cells [4]): 16 µg/mL; hemolytic effect [5]: potent hemolytic effect
GLKKKIKEVGKEAAKAAAKAAGKAALGAVSEAV [K3K4B2] | 6.25 µg/mL | 12.5 µg/mL | –
GLWSKIKEVGKEAAKAAAKAAGKAALGAVSEAV-OH [B2] | 12.5 µg/mL | 25 µg/mL | –
lactoferricin (17–30): other AMP from the literature (CLAAPRKNVRWCTI; ends and bridges not checked; cysteine pairing not given here; UniProt P24627 17-30, looked up, fragment) | – | – | cytotoxicity at lower concentrations ([6]; 1X and 2X MIC): negligible cytotoxicity; cytotoxicity at 4X MIC ([6]; 4X MIC): slightly higher cytotoxicity; MIC [7]: 128 µg/mL
